Experimental data as given in US7709636B2, “Pyrazole sulfonylurea compound and herbicide” (Nissan Chemical Industries, Ltd., priority 2004, dated 2010).

Legend:
[1] = test system: Echinochloa crus-galli; assay: Herbicidal effect test in submerged condition by treatment before weed-generation (1); type: in vivo; details: 0.64 g/a, water surface treated on day of sowing, 3 weeks after treatment
From the text: (§1) Herbicidal Effect Test in Submerged Condition by Treatment Before Weed-Generation (1)
(§2) After alluvial soil was placed in a styrol cup of 1/30000 are, water was poured therein and mixed, and adjusted to a submerged condition of water depth 4 cm. After seeds of Echinochloa crus-galli, Scirpus juncoides and Monochoria vaginalis were sown in the cup, rice seedlings at 2.5th leaf stage were transplanted. On the day when the seeds were sown, the wettable powder of the present invention prepared according to Formulation Example 1 was diluted with water so as to give a predetermined formulation amount, and the surface of the water was treated with the diluted wettable powder. The plants were grown by putting the cup in a green house at 25 to 30° C., and investigated on herbicidal effect against each weed 3 weeks after treatment with the herbicide according to the following criteria.
(§3) 5 Herbicidal rate 90% or more (almost complete death)
(§4) 4 Herbicidal rate 70% or more and less than 90%
(§5) 3 Herbicidal rate 40% or more and less than 70%
(§6) 2 Herbicidal rate 20% or more and less than 40%
(§7) 1 Herbicidal rate 5% or more and less than 20%
(§8) 0 Herbicidal rate 5% or less (little effect)

[2] = test system: Monochoria vaginalis; assay: as above; type: in vivo; details: 0.64 g/a, water surface treated on day of sowing, 3 weeks after treatment
From the text: as §1, §2, §3, §4, §5, §6, §7, §8

[3] = test system: Scirpus juncoides; assay: as above; type: in vivo; details: 0.64 g/a, water surface treated on day of sowing, 3 weeks after treatment
From the text: as §1, §2, §3, §4, §5, §6, §7, §8

[4] = test system: Echinochloa crus-galli; assay: Herbicidal effect test in submerged condition by treatment during weed-growth stage (1); type: in vivo; details: 0.64 g/a, treated at 1st to 2nd leaf stage, 3 weeks after treatment
Method: (§9) Herbicidal Effect Test in Submerged Condition by Treatment During Weed-Growth Stage (1) After alluvial soil was placed in a styrol cup of 1/30000 are, water was poured therein and mixed, and adjusted to a submerged condition of water depth 4 cm. After seeds of Echinochloa crus-galli, Scirpus juncoides and Monochoria vaginalis were sown in the cup, the plants were grown by putting the cup in a green house at 25 to 30° C. When Echinochloa crus-galli, Scirpus juncoides and Monochoria vaginalis reached 1st to 2nd leaf stage, the wettable powder of the present invention prepared according to Formulation Example 1 was diluted with water so as to give a predetermined formulation amount, and the surface of the water was treated with the diluted wettable powder. The herbicidal effect for each plant was investigated 3 weeks after treatment with the herbicide according to the criteria indicated in Test Example 1.

[5] = test system: Monochoria vaginalis; assay: as above; type: in vivo; details: 0.64 g/a, treated at 1st to 2nd leaf stage, 3 weeks after treatment
Method: as §9

[6] = test system: Scirpus juncoides; assay: as above; type: in vivo; details: 0.64 g/a, treated at 1st to 2nd leaf stage, 3 weeks after treatment
Method: as §9

[7] = test system: Abutilon avicennae; assay: Herbicidal effect test by soil treatment; type: in vivo; details: 1.6 g/a, 3 weeks after treatment
From the text: (§10) Herbicidal Effect Test by Soil Treatment
(§11) Sterilized diluvial soil was placed in a plastic box having a size of length 21 cm, width 13 cm and depth 7 cm, seeds Echinochloa crus-galli, Digitaria adscendes, Setaria viridis, Avena fatua, Black-grass, Abutilon avicennae, Ambrosia elatior, Amaranthus retroflexus, Chenopodium album, Polygonum blumei, Stellaria media, Zea mays (corn), Glycine max (soybean), Oryza sativa (rice), Triticum aestivum (wheat) and Beta vulgaris (beat) were sown interspatially, covered with about 1.5 cm of soil, and then the wettable powder of the present invention prepared according to Formulation Example 1 was diluted with water so as to give a predetermined formulation amount, and the surface of the soil was uniformly treated with the diluted wettable powder by use of a small-sized spray. The herbicidal effect for each plant was investigated 3 weeks after treatment with the herbicide according to the criteria indicated in Test Example 1.

[8] = test system: Amaranthus retroflexus; assay: Herbicidal effect test by soil treatment; type: in vivo; details: 1.6 g/a, 3 weeks after treatment
From the text: as §10, §11

[9] = test system: Ambrosia elatior; assay: Herbicidal effect test by soil treatment; type: in vivo; details: 1.6 g/a, 3 weeks after treatment
From the text: as §10, §11

[10] = test system: Beta vulgaris (beet); assay: Herbicidal effect test by soil treatment; type: in vivo; details: 1.6 g/a, 3 weeks after treatment
From the text: as §10, §11

[11] = test system: Chenopodium album; assay: Herbicidal effect test by soil treatment; type: in vivo; details: 1.6 g/a, 3 weeks after treatment
From the text: as §10, §11

[12] = test system: Digitaria adscendes; assay: Herbicidal effect test by soil treatment; type: in vivo; details: 1.6 g/a, 3 weeks after treatment
From the text: as §10, §11

[13] = test system: Echinochloa crus-galli; assay: Herbicidal effect test by soil treatment; type: in vivo; details: 1.6 g/a, 3 weeks after treatment
From the text: as §10, §11

[14] = test system: Polygonum blumei; assay: Herbicidal effect test by soil treatment; type: in vivo; details: 1.6 g/a, 3 weeks after treatment
From the text: as §10, §11

[15] = test system: Setaria viridis; assay: Herbicidal effect test by soil treatment; type: in vivo; details: 1.6 g/a, 3 weeks after treatment
From the text: as §10, §11

[16] = test system: Stellaria media; assay: Herbicidal effect test by soil treatment; type: in vivo; details: 1.6 g/a, 3 weeks after treatment
From the text: as §10, §11

[17] = test system: corn (Zea mays); assay: Herbicidal effect test by soil treatment; type: in vivo; details: 1.6 g/a, 3 weeks after treatment
From the text: as §10, §11

[18] = test system: soybean (Glycine max); assay: Herbicidal effect test by soil treatment; type: in vivo; details: 1.6 g/a, 3 weeks after treatment
From the text: as §10, §11

[19] = test system: direct sown rice; assay: Herbicidal effect test by soil treatment; type: in vivo, Oryza sativa; details: 1.6 g/a, 3 weeks after treatment
From the text: as §10, §11

[20] = test system: Abutilon avicennae; assay: Herbicidal effect test by foliage treatment; type: in vivo; details: 1.6 g/a; foliage treatment after growth of 14 days; 3 weeks after treatment
From the text: (§12) Herbicidal Effect Test by Foliage Treatment
(§13) Sterilized diluvial soil was placed in a plastic box having a size of length 21 cm, width 13 cm and depth 7 cm, seeds of Echinochloa crus-galli, Digitaria adscendes, Setaria viridis, Avena fatua, Black-grass, Abutilon avicennae, Ambrosia elatior, Amaranthus retroflexus, Chenopodium album, Polygonum blumei, Stellaria media, Zea mays, Glycine max, Oryza sativa, Triticum aestivum and Beta vulgaris were sown interspatially, covered with about 1.5 cm of soil, and then the plants were grown by putting the box in a green house at 25 to 30° C. After growth of 14 days, the wettable powder of the present invention prepared according to Formulation Example 1 was diluted with water so as to give a predetermined formulation amount, and the foliage part was uniformly treated with the diluted wettable powder by use of a small-sized spray. The herbicidal effect for each plant was investigated 3 weeks after treatment with the herbicide according to the criteria indicated in Test Example 1.

[21] = test system: Amaranthus retroflexus; assay: Herbicidal effect test by foliage treatment; type: in vivo; details: 1.6 g/a; foliage treatment after growth of 14 days; 3 weeks after treatment
From the text: as §12, §13

[22] = test system: Ambrosia elatior; assay: Herbicidal effect test by foliage treatment; type: in vivo; details: 1.6 g/a; foliage treatment after growth of 14 days; 3 weeks after treatment
From the text: as §12, §13

[23] = test system: Avena fatua; assay: Herbicidal effect test by foliage treatment; type: in vivo; details: 1.6 g/a; foliage treatment after growth of 14 days; 3 weeks after treatment
From the text: as §12, §13

[24] = test system: Beta vulgaris (beet); assay: Herbicidal effect test by foliage treatment; type: in vivo; details: 1.6 g/a; foliage treatment after growth of 14 days; 3 weeks after treatment
From the text: as §12, §13

[25] = test system: Black-grass; assay: Herbicidal effect test by foliage treatment; type: in vivo; details: 1.6 g/a; foliage treatment after growth of 14 days; 3 weeks after treatment
From the text: as §12, §13

[26] = test system: Chenopodium album; assay: Herbicidal effect test by foliage treatment; type: in vivo; details: 1.6 g/a; foliage treatment after growth of 14 days; 3 weeks after treatment
From the text: as §12, §13

[27] = test system: Digitaria adscendes; assay: Herbicidal effect test by foliage treatment; type: in vivo; details: 1.6 g/a; foliage treatment after growth of 14 days; 3 weeks after treatment
From the text: as §12, §13

[28] = test system: Echinochloa crus-galli; assay: Herbicidal effect test by foliage treatment; type: in vivo; details: 1.6 g/a; foliage treatment after growth of 14 days; 3 weeks after treatment
From the text: as §12, §13

[29] = test system: Polygonum blumei; assay: Herbicidal effect test by foliage treatment; type: in vivo; details: 1.6 g/a; foliage treatment after growth of 14 days; 3 weeks after treatment
From the text: as §12, §13

[30] = test system: Setaria viridis; assay: Herbicidal effect test by foliage treatment; type: in vivo; details: 1.6 g/a; foliage treatment after growth of 14 days; 3 weeks after treatment
From the text: as §12, §13

[31] = test system: Stellaria media; assay: Herbicidal effect test by foliage treatment; type: in vivo; details: 1.6 g/a; foliage treatment after growth of 14 days; 3 weeks after treatment
From the text: as §12, §13

[32] = test system: Triticum aestivum (wheat); assay: Herbicidal effect test by foliage treatment; type: in vivo; details: 1.6 g/a; foliage treatment after growth of 14 days; 3 weeks after treatment
From the text: as §12, §13

[33] = test system: corn (Zea mays); assay: Herbicidal effect test by foliage treatment; type: in vivo; details: 1.6 g/a; foliage treatment after growth of 14 days; 3 weeks after treatment
From the text: as §12, §13

[34] = test system: soybean (Glycine max); assay: Herbicidal effect test by foliage treatment; type: in vivo; details: 1.6 g/a; foliage treatment after growth of 14 days; 3 weeks after treatment
From the text: as §12, §13

[35] = test system: direct sown rice; assay: Herbicidal effect test by foliage treatment; type: in vivo, Oryza sativa; details: 1.6 g/a; foliage treatment after growth of 14 days; 3 weeks after treatment
From the text: as §12, §13

## COc1cc(OC)nc(NC(=O)NS(=O)(=O)c2c(C3=NOCC(C)O3)c(C)nn2C)n1 (centres unmarked) [Compound 5, N-((4,6-dimethoxypyrimidin-2-yl)aminocarbonyl)-1,3-dimethyl-4-(5-methyl-5H,6H-1,4,2-dioxadin-3-yl)pyrazole-5-sulfonamide]
[1]
  herbicidal effect, A: Echinochloa crus-galli: 5 (Herbicidal rate 90% or more (almost complete death))
[2]
  herbicidal effect, C: Monochoria vaginalis: 5 (Herbicidal rate 90% or more (almost complete death))
[3]
  herbicidal effect, B: Scirpus juncoides: 5 (Herbicidal rate 90% or more (almost complete death))
[4]
  herbicidal effect, A: Echinochloa crus-galli: 5 (Herbicidal rate 90% or more (almost complete death))
[5]
  herbicidal effect, C: Monochoria vaginalis: 5 (Herbicidal rate 90% or more (almost complete death))
[6]
  herbicidal effect, B: Scirpus juncoides: 5 (Herbicidal rate 90% or more (almost complete death))
[7]
  herbicidal effect, H: Abutilon avicennae: 4 (Herbicidal rate 70% or more and less than 90%)
[8]
  herbicidal effect, J: Amaranthus retroflexus: 5 (Herbicidal rate 90% or more (almost complete death))
[9]
  herbicidal effect, I: Ambrosia elatior: 5 (Herbicidal rate 90% or more (almost complete death))
[10]
  herbicidal effect, f: Beta vulgaris (beet): 5 (Herbicidal rate 90% or more (almost complete death))
[11]
  herbicidal effect, K: Chenopodium album: 5 (Herbicidal rate 90% or more (almost complete death))
[12]
  herbicidal effect, D: Digitaria adscendes: 5 (Herbicidal rate 90% or more (almost complete death))
[13]
  herbicidal effect, A: Echinochloa crus-galli: 5 (Herbicidal rate 90% or more (almost complete death))
[14]
  herbicidal effect, L: Polygonum blumei: 5 (Herbicidal rate 90% or more (almost complete death))
[15]
  herbicidal effect, E: Setaria viridis: 4 (Herbicidal rate 70% or more and less than 90%)
[16]
  herbicidal effect, M: Stellaria media: 5 (Herbicidal rate 90% or more (almost complete death))
[17]
  herbicidal effect, b: corn (Zea mays): 5 (Herbicidal rate 90% or more (almost complete death))
[18]
  herbicidal effect, c: soybean (Glycine max): 5 (Herbicidal rate 90% or more (almost complete death))
[19]
  herbicidal effect, d: direct sown rice: 5 (Herbicidal rate 90% or more (almost complete death))
[20]
  herbicidal effect, H: Abutilon avicennae: 5 (Herbicidal rate 90% or more (almost complete death))
[21]
  herbicidal effect, J: Amaranthus retroflexus: 5 (Herbicidal rate 90% or more (almost complete death))
[22]
  herbicidal effect, I: Ambrosia elatior: 5 (Herbicidal rate 90% or more (almost complete death))
[23]
  herbicidal effect, F: Avena fatua: 5 (Herbicidal rate 90% or more (almost complete death))
[24]
  herbicidal effect, f: Beta vulgaris (beet): 5 (Herbicidal rate 90% or more (almost complete death))
[25]
  herbicidal effect, G: Black-grass: 5 (Herbicidal rate 90% or more (almost complete death))
[26]
  herbicidal effect, K: Chenopodium album: 5 (Herbicidal rate 90% or more (almost complete death))
[27]
  herbicidal effect, D: Digitaria adscendes: 5 (Herbicidal rate 90% or more (almost complete death))
[28]
  herbicidal effect, A: Echinochloa crus-galli: 5 (Herbicidal rate 90% or more (almost complete death))
[29]
  herbicidal effect, L: Polygonum blumei: 5 (Herbicidal rate 90% or more (almost complete death))
[30]
  herbicidal effect, E: Setaria viridis: 4 (Herbicidal rate 70% or more and less than 90%)
[31]
  herbicidal effect, M: Stellaria media: 5 (Herbicidal rate 90% or more (almost complete death))
[32]
  herbicidal effect, e: Triticum aestivum (wheat): 5 (Herbicidal rate 90% or more (almost complete death))
[33]
  herbicidal effect, b: corn (Zea mays): 5 (Herbicidal rate 90% or more (almost complete death))
[34]
  herbicidal effect, c: soybean (Glycine max): 5 (Herbicidal rate 90% or more (almost complete death))
[35]
  herbicidal effect, d: direct sown rice: 3 (Herbicidal rate 40% or more and less than 70%)
